# Test results published in patent US6344436B1, “Lipophilic peptides for macromolecule delivery” (Baylor College of Medicine, priority 1996, dated 2002).
# Ends that are not written are not given here. * marks the point of attachment. N,N‑distearylglycyl = CCCCCCCCCCCCCCCCCCN(CCCCCCCCCCCCCCCCCC)CC(=O)*
# What was measured:
# 293 epithelial cells = assay: Transfection of 293 epithelial cells grown in lovastatin to up-regulate LDL receptors; assay type: cell-based; conditions: for transfection ability of peptide-macromolecule complexes (FIG. 10): comparison between complexes
# Protocol: The ability of the formulations of example three to transfect cells was tested in 293 epithelial cells grown in 1 μg mL^−1 lovastatin overnight to up-regulate LDL receptors. […] As expected from the reduced binding of the mutant peptide to the LDL receptor, expression by mutant peptide complexes was about 5% of that observed with the wild-type apoE peptide complexes. We conclude that the diacyl-peptide functions as a condensing agent, an encapsulation agent, a targeting agent and a lytic agent. Apart from the well defined receptor ligand domain, the sequence regions that contain the other functions remain to be elucidated.
# [1] = Particle size of peptide-macromolecule complex after enmeshment and condensation; assay type: physicochemical; conditions: for particle size: peptide added to DNA in the absence of condensing peptide, CHAPS micelles diluted below cmc
# Protocol: Subsequently, the nucleic acid becomes coated with lipophilic peptide and enmeshed; forming a condensed nucleic acid/lipophilic peptide complex while CHAPS detergent monomers can be dialyzed out of the resulting mixture (FIGURE EIGHT).
# The degree of condensation of the nucleic acid given the treatment of example two is shown as FIGURE NINE. When distearyl-glycyl-apoE-3^129-169 was added to DNA previously condensed with K8, the particle size increased only ˜20%. The addition of JTS-1 increased the particle size another 40%. By contrast, addition of distearyl-glycyl-apoE-3^129-169 to DNA in the absence of condensing peptide gave a smaller particle, about 60 nm. Condensation and enmeshment with the distearyl-glycyl-apoE-3^129-169Q142, the mutant peptide, also gave a small, 60 nm monodisperse particle population. When distearyl-glycyl-apoE-3^129-169 in 10 mM CHAPS was diluted without DNA being present, the resulting vesicles were ˜450 nm in diameter. […] Free DNA in the control remained at the top of the gradient, while the enmeshed-condensed complex was found at the bottom of the centrifugation tube.
# LDL receptor = biological target: T1, LDL receptor (Homo sapiens, UniProt P01130); assay: Cytosis and degradation of labeled LDL complexed with lipophilic peptide (FIG. 4); assay type: cell-based
# T1 construct: endogenous in cells
# T1 sequence (P01130 22-860, species assumed): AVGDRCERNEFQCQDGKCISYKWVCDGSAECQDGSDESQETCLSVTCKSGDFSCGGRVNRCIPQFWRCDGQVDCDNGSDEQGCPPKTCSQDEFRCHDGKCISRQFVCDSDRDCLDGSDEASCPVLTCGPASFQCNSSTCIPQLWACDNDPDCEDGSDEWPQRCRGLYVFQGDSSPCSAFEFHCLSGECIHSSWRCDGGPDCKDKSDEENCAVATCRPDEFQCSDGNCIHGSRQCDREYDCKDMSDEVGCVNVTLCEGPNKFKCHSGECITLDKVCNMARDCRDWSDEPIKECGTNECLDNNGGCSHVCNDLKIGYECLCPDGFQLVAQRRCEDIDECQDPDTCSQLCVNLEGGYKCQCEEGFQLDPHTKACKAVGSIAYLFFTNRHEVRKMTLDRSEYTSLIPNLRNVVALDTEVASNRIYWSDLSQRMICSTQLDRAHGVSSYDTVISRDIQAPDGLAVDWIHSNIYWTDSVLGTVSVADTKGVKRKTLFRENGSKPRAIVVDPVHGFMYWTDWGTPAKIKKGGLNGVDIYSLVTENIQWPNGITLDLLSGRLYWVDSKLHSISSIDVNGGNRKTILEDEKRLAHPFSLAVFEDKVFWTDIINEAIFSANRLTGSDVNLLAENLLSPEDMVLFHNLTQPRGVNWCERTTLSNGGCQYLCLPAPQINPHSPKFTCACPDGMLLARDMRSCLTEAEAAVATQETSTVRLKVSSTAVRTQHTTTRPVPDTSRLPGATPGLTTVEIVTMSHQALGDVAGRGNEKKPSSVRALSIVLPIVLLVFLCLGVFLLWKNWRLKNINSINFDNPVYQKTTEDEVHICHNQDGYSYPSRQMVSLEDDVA
Substance,necessity of component for efficient gene transfer (293 epithelial cells; 293 epithelial cells (FIGURE TENc)),further increase in particle size ([1]; JTS-1 added to K8-condensed DNA plus distearyl-glycyl-apoE-3^129-169) [%],cytosis and degradation of labeled LDL complexed with peptide (FIG. 4) (LDL receptor),transfection ability of peptide-macromolecule complexes (FIG. 10) (293 epithelial cells),comparative size of peptide complexes ([1]; diameter after condensation of DNA (FIG. 9)),particle size [1],increase in particle size ([1]; peptide added to DNA previously condensed with K8) [%],diameter of resulting vesicles ([1]; peptide in 10 mM CHAPS diluted without DNA being present) [nm],"expression relative to wild-type apoE peptide complexes (293 epithelial cells; 293 epithelial cells, 1 μg mL^−1 lovastatin overnight)"
"GLFEALLELLESLWELLLEA [JTS-1, reference compound]",Neither the galtoselated K8 or JTS-1 were necessary,40,–,–,–,–,–,–,–
"distearyl-glycyl-apoE-3^129-169 ({N,N‑distearylglycyl}-STEELRVRLASHLRKLRKRLLRDADDLQKRLAVYQAGAREG)",–,–,cytosed and subsequently degraded,No significant transfection difference,greatest reduction in diameter,about 60 nm,~20,~450,–
distearyl-glycyl-apoE-3^129-169(Q142),–,–,significantly less cytosis and degradation,significantly less transfection,–,60 nm,–,–,about 5%
